Values of other authors as cited in patent publication US20230039272A1, “COMPOSITION FOR IMPROVED ENERGY, FOCUS AND CLARITY” (Gwella Mushrooms Inc., priority 2021, published 2023).
Residues, ends and D or L forms follow the SMILES beside them. *: point of attachment. PhAc = O=C(Cc1ccccc1)*

How the values were obtained:
[1] = patients with mild to moderate dementia
[2] = high doses for long periods of time

SMILES	quality of life scale [1]	test scores on logical performance, attention, concentration, memory and spatial orientation [1]	step-down retention performance and acquisition performance in active-avoidance situations (in vivo)	learning of animals (pre-clinical studies)	safety [2]	cognition restoring effect (Amyloid Beta exposure; animal models of Alzheimer's Disease, preliminary studies)	neuroprotective effect (cell viability, calcium homeostasis, Reactive Oxygen Species levels, mitochondrial function, tau phosphorylation, neurite outgrowth) (Amyloid Beta exposure; impairments caused by Amyloid Beta exposure)
NC(=O)CN1CC(O)CC1=O (stereo not shown) [Oxiracetam]	improved quality of life scale	higher test scores	improve step-down retention performance and acquisition performance	improve learning of animals	save, even at high doses for long periods of time		
CCOC(=O)CNC(=O)[C@@H]1CCCN1C(=O)Cc1ccccc1 [N-phenylacetyl-L-prolylglycine ethyl ester] (PhAc-Pro-Gly-OEt)						cognition restoring effect	neuroprotective effect
